pIC50: −log10 of the molar value.
How the values were obtained:
[1] = target: IDH1 wt/IDH1 R132H heterodimer (Homo sapiens (Human), UniProt O75874, R132H); experiment: In vitro assay for IDH1m R132H inhibitors, IDH1 wt/IDH1 R132H heterodimer, NADPH depletion (diaphorase/resazurin); type: biochemical; conditions: IDH1 wt/R132H heterodimer, NADPH/NADP, not saturated; read-out: IDH1 wt/R132H NADPH/NADP IC50 not saturated
How it was run: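 Read-out is NADPH left after α-KG reduction to 2-HG, measured via resorufin fluorescence after 5 min diaphorase/resazurin step at 25° C. Enzyme is sf9-expressed IDH1wt-his/IDH1R132H-flag heterodimer, pre-incubated 1 hr at room temperature with compound and cofactor. IC50s from DMSO stocks diluted 1:50.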

[2] = target: IDH1 wt/IDH1 R132C heterodimer (Homo sapiens (Human), UniProt O75874, R132C); experiment: In vitro assay for IDH1m R132C inhibitors, IDH1 wt/IDH1 R132C heterodimer, NADPH depletion (diaphorase/resazurin); type: biochemical; conditions: NADPH/NADP
Experimental: The following describes the experimental procedures that can be used to obtain data on columns 2 and 4 of Table 4 and column 2 of Table 5.
In the primary reaction, the reduction of α-KG acid to 2-HG is accompanied by a concomitant oxidation of NADPH to NADP. The amount of NADPH remaining at the end of the reaction time is measured in a secondary diaphorase/resazurin reaction in which the NADPH is consumed in a 1:1 molar ratio with the conversion of resazurin to the highly fluorescent resorufin.
The mixture of compound, enzyme, and cofactor is pre-incubated at room temperature for 1 hr prior to the addition of alpha-ketoglutarate. To perform the secondary reaction, 10 uL of 1× buffer containing 36 μg/ml diaphorase and […] resazurin is added to the primary reaction and incubated for a further 5 minutes at 25° C. Florescence is read on a Spectramax platereader at Ex 544 Em 590. Compounds or compound dilutions are prepared in 100% DMSO concentration and diluted 1:50 into the final reaction. […] IC50s are determined.
IDH1 or IDH2 wildtype (wt) and mutant heterodimers are expressed and purified by methods known in the art. For example, IDH1wt/R132m heterodimer is expressed and purified as follows. Co-expression of IDH1wt-his and IDH1R132C-flag is carried out in sf9 insect cells. Cells (25 g) are resuspended in 250 ml of 50 mM Tirs, 500 mM NaCl, pH7.4, at 4° C. with stirring. Cells are disrupted with 4 passes through an M-Y110 Micro fluidizer (Microfluidics) set to 500 psi, and then centrifuged at 22,000 rcf for 20 min at 4° C. The supernatant is harvested and loaded at 15 cm/h on a Histrap FF 5*1 ml column (GE) which is equilibrated with 50 mM Tirs, 500 mM NaCl, pH7.4. Host cell contaminants are removed by washing the column with equilibration buffer followed by equilibration buffer containing 20 mM imidazole and 60 mM imidazole to baseline. IDH1wt-his homodimer and IDH1wt-his/IDH1R132C-flag are eluted by equilibration buffer containing 250 mM imidazole. Fractions eluted by 250 mM imidazole are pooled together and loaded at 15 cm/h onto a column pre-packed with 10 ml ANTI-FLAG® M2 Affinity Gel (Sigma), the column is equilibrated with 50 mM Tris, 500 mM NaCl, pH7.4. After washing with equilibration buffer, IDH1wt-his/IDH1R132C-flag heterodimer is eluted by equilibration buffer containing flag peptide (0.2 mg/ml). Aliquots of IDH1wt-his/IDH1R132C-flag are flash frozen in liquid N2 and stored at −80° C. Same conditions are used for the purification of IDH1wt-his/IDH1R132H-flag.

[3] = target: IDH2 R140Q (Homo sapiens (Human), UniProt P48735, R140Q); experiment: In vitro assay for IDH2m R140Q inhibitors, cofactor depletion assay; type: biochemical; conditions: IDH2 R140Q enzyme
How it was run: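 Remaining cofactor measured fluorimetrically: diaphorase/resazurin Stop Mix […], halting the reaction. Before that, mutant enzyme and compound sat 1 h at RT, then substrate mix (4 μM NADPH, 1.6 mM α-KG) was added for 16 h at RT.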

[4] = test system: U87MG pLVX-IDH2 R140Q-neo cells; experiment: U87MG pLVX-IDH2 R140Q-neo cell based assay, 2-HG by LC-MS; conditions: Homo sapiens, U-87 MG
[5] = test system: Neurosphere cells (TS603); experiment: Cellular assay for IDH1m R132H inhibitors, 2-HG by LC-MS in neurosphere cells (TS603); type: cell-based; conditions: 2-HG in media at 48 hours
How it was run: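 TS603 neurosphere cells in NeuroCult medium were dosed with compound (0.25% DMSO final) at 37 C, 5% CO2. After 48 hours, medium 2-HG was measured by LC-MS. At 72 hours, viability was read by CellTiter-Glo luminescence.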

[6] = target: IDH1-R132H homodimer enzyme (Homo sapiens (Human), UniProt O75874, R132H); experiment: In vitro assay IDH1-R132H homodimer, NADPH depletion assay with NADPH/NADP preincubation; type: biochemical; conditions: 5 μM NADPH and 37.5 μM NADP
How it was run: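 Compounds were added from DMSO at 50× final concentration, and the mutant enzyme was incubated 60 min at room temperature after starting with a substrate mix holding NADPH and 5 mM alpha-ketoglutarate. Residual cofactor, read by fluorescence after excess diaphorase and resazurin, reflects enzyme turnover.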

[7] = test system: HT1080 cells; experiment: Cellular assay for IDH1m R132C inhibitors, 2-HG by LC-MS in HT1080 cells; type: cell-based; conditions: Homo sapiens, HT-1080
How it was run: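 2-HG levels were measured by LC-MS in culture medium sampled 48 h after compound addition (0.2% DMSO) to HT1080 cells seeded overnight at 5000 cells/well. A CellTiter-Glo luminescence read at 72 h gave cell viability.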

[8] = target: IDH1-R132 homodimer enzyme (R132H) (Homo sapiens (Human), UniProt O75874, R132H); experiment: In vitro assay IDH1-R132H homodimer, NADPH depletion assay; type: biochemical
Experimental: The following describes the experimental procedures that can be used to obtain data on columns 3 and 6 of Table 4.
A test compound is prepared as 10 mM stock in DMSO and diluted to 50× final concentration in DMSO, for a 50 μl reaction mixture. IDH enzyme activity converting alpha-ketoglutarate to 2-hydroxyglutaric acid is measured using a NADPH depletion assay. In the assay the remaining cofactor is measured at the end of the reaction with the addition of a catalytic excess of diaphorase and resazurin, to generate a fluorescent signal in proportion to the amount of NADPH remaining. […] The reaction is started with the addition of 10 μl of Substrate Mix ([…], 5 mM alpha-ketoglutarate, in Assay Buffer) and the mixture is incubated for 90 minutes at room temperature.

Chain of IDH1-R132H homodimer enzyme (O75874 whole entry R132H): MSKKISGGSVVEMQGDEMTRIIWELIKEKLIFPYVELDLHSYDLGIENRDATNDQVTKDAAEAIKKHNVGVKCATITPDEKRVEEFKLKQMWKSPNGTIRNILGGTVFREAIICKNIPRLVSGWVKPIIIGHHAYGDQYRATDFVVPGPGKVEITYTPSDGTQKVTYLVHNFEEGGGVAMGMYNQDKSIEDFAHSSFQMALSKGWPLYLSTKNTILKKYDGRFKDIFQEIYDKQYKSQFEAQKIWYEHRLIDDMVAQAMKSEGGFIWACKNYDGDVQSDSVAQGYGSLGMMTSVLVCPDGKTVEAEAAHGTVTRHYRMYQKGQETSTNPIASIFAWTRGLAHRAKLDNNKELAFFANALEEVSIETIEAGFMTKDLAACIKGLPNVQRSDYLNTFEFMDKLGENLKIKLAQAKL
Chain of IDH1 wt/IDH1 R132H heterodimer (O75874 whole entry R132H): as above
Chain of IDH1 wt/IDH1 R132H heterodimer (O75874 whole entry, stated change not applied): as the sequence (O75874 whole entry R132H) above, with H132R counted along it
Chain of IDH1 wt/IDH1 R132C heterodimer (O75874 whole entry R132C): as the sequence (O75874 whole entry R132H) above, with H132C counted along it
Chain of IDH1 wt/IDH1 R132C heterodimer (O75874 whole entry, stated change not applied): as the sequence (O75874 whole entry R132H) above, with H132R counted along it
Chain of IDH2 R140Q (P48735 40-452 R140Q): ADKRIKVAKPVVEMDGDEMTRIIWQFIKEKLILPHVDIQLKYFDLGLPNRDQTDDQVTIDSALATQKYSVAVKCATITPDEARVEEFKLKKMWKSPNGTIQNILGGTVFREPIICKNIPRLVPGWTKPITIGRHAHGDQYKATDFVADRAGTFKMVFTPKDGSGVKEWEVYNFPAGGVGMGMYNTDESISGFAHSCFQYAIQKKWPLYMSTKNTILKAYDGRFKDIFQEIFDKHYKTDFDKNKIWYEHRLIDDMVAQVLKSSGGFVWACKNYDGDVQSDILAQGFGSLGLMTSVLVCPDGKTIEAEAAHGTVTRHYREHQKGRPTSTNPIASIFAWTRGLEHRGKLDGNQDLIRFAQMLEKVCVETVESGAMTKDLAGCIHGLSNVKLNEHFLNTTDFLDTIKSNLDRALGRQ
Chain of IDH1-R132 homodimer enzyme (R132H) (O75874 whole entry R132H): as the sequence (O75874 whole entry R132H) above

Work on CC(C)(C)OC(=O)N1CCC(Nc2nc(NC3CCC(F)(F)C3)nc(-c3cccc(C(F)(F)F)n3)n2)C1 (stereo not shown) [Compound 90] yielded a pIC50 [1] of 6.00 to 7.00 and a pIC50 [2] of 7.00 to 7.30.
For FC1(F)CCC(Nc2nc(NC3CCNC3)nc(-c3cccc(C(F)(F)F)n3)n2)C1 (stereo not shown) [Compound 91], the pIC50 [1] was < 6.00 and the pIC50 [2] was ≤ 6.00.
C[C@@H](Nc1nc(N[C@H](C)C2CC2)nc(-c2cccnc2)n1)C1CC1 [Compound 92, N^2,N^4-bis((R)-1-cyclopropylethyl)-6-(pyridin-3-yl)-1,3,5-triazine-2,4-diamine] was tested, and the pIC50 [1] was < 6.00 and the pIC50 [2] was ≤ 6.00.
Fc1cc(F)cc(Nc2nc(NC3CCC(F)(F)CC3)nc(-c3cccc(C(F)(F)F)n3)n2)c1 [Compound 125] was tested, and the pIC50 [1] was > 7.30, the pIC50 [2] was > 7.30 and the pIC50 [3] was > 7.30. For the same compound, the pIC50 [4] was > 7.30 and the pIC50 [5] was > 7.30.
For N#Cc1ccc2c(c1)CC(Nc1nc(NC3CCC(F)(F)C3)nc(-c3cccc(C(F)(F)F)n3)n1)C2 (stereo not shown) [Compound 242], the pIC50 [1] was 7.00 to 7.30, the pIC50 [2] was 7.00 to 7.30 and the pIC50 [6] was 6.00 to 7.00.
In the case of Fc1cc(F)cc(Nc2nc(NC3CCC(F)(F)CC3)nc(-c3nc(F)ccc3F)n2)c1 [Compound 260], the pIC50 [1] was 6.00 to 7.00, the pIC50 [2] was 7.00 to 7.30 and the pIC50 [3] was > 7.30. The pIC50 [7] was < 6.00 and the pIC50 [4] was > 7.30.
FC1(F)CCC(Nc2nc(NC3CCC(F)(F)CC3)nc(-c3ccnc(C(F)(F)F)n3)n2)CC1 [Compound 270] was tested, and the pIC50 [1] was 6.00 to 7.00, the pIC50 [2] was 6.00 to 7.00 and the pIC50 [6] was < 6.00. For the same compound, the pIC50 [3] was 6.00 to 7.00 and the pIC50 [4] was 6.00 to 7.00.
For Fc1ccc(F)c(-c2nc(NC3CCC(F)(F)CC3)nc(NC3CCC(F)(F)CC3)n2)n1 [Compound 276], the pIC50 [1] was 6.00 to 7.00, the pIC50 [2] was 6.00 to 7.00 and the pIC50 [6] was < 6.00.
For C[C@@H](Nc1nc(N[C@H](C)C2CC2)nc(-n2cc(I)cn2)n1)C1CC1 [Compound 279], the pIC50 [1] was 6.00 to 7.00, the pIC50 [2] was 6.00 to 7.00 and the pIC50 [6] was < 6.00. For the same compound, the pIC50 [3] was 6.00 to 7.00 and the pIC50 [4] was 6.00 to 7.00.
In the case of FC1(F)CCC(Nc2nc(NC3CCC(F)(F)CC3)nc(-c3cccc(OC(F)(F)F)n3)n2)CC1 [Compound 296], the pIC50 [1] was 6.00 to 7.00, the pIC50 [2] was ≤ 6.00 and the pIC50 [6] was < 6.00.
For FC1(F)CCC(Nc2nc(NC3CCC(F)(F)CC3)nc(-c3c[nH]nc3C(F)(F)F)n2)CC1 [Compound 297], the pIC50 [1] was 6.00 to 7.00, the pIC50 [2] was 6.00 to 7.00 and the pIC50 [6] was < 6.00.
Cc1nc(-c2nc(NC3CC(F)(F)C3)nc(NC3CC(F)(F)C3)n2)co1 [Compound 301] was tested, and the pIC50 [1] was 6.00 to 7.00, the pIC50 [2] was ≤ 6.00 and the pIC50 [6] was < 6.00.
FC1(F)CCC(Nc2nc(NC3CCC(F)(F)CC3)nc(-n3cc(Cl)cn3)n2)CC1 [Compound 302] was tested, and the pIC50 [1] was 6.00 to 7.00, the pIC50 [2] was 6.00 to 7.00 and the pIC50 [6] was < 6.00. It also gave a pIC50 [3] of 6.00 to 7.00 and a pIC50 [4] of 6.00 to 7.00.
In the case of Cc1cc(-c2nc(NC3CC(F)(F)C3)nc(NC3CC(F)(F)C3)n2)no1 [Compound 311], the pIC50 [1] was < 6.00, the pIC50 [2] was ≤ 6.00 and the pIC50 [6] was < 6.00.
For COc1ccc(F)c(-c2nc(NC3CCC(F)(F)CC3)nc(NC3CCC(F)(F)CC3)n2)n1 [Compound 321], the pIC50 [1] was < 6.00, the pIC50 [2] was ≤ 6.00 and the pIC50 [6] was < 6.00.
For FC(F)(F)c1cccc(-c2nc(NCC3CC3)cc(NCC3CC3)n2)n1 [Compound 419], the pIC50 [8] was < 6.00, the pIC50 [6] was 6.00 to 7.00 and the pIC50 [4] was 6.00 to 7.00.

Source: patent US10028961B2, “Therapeutically active compounds and their methods of use” (AGIOS PHARMACEUTICALS, INC., priority 2013, dated 2018)
